# From patent US20230114728A1 (Venatorx Pharmaceuticals, Inc., priority 2019, published 2023)
# Target: T1, A. baumannii PBP2 (Acinetobacter baumannii, UniProt D0C8Z9)
# T1 construct: made in house
# T1 sequence (D0C8Z9 1-672): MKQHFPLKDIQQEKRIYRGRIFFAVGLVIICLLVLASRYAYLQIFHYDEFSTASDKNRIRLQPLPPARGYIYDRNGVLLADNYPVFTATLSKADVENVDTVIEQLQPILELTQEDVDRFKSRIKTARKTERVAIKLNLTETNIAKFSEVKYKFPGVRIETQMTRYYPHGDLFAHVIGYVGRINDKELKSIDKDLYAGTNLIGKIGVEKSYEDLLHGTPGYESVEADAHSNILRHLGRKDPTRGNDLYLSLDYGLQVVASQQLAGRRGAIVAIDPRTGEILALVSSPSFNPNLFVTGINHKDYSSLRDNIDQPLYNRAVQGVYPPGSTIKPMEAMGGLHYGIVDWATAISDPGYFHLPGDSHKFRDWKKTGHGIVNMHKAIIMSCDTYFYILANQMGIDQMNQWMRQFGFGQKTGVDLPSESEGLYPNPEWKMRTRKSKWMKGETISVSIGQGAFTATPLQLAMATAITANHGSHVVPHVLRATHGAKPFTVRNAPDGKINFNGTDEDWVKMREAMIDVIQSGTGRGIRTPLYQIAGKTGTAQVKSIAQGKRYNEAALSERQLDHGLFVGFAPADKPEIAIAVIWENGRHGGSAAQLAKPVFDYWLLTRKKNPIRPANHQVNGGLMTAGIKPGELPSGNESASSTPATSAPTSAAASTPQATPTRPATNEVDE
# Assay: Bocillin-FL fluorescence polarization competition binding assay, A. baumannii PBP2
# Conditions: fluorescence polarization competition binding assay using Bocillin-FL; read-out: A. baumannii PBP2 Potency
# Source text: Example I: Experimental Method for Penicillin-Binding Protein Binding Assays with Bocillin-FL Via Fluorescence Polarization
# To determine the ability of boronic acid-based test PBP inhibitors to bind Penicillin Binding Proteins (PBPs), Bocillin-FL (fluorescently-labeled penicillin V; ThermoFisher Scientific) was used in a fluorescence polarization (FP) competition binding assay to assess inhibitor binding to PBP2, PBP3 or PBP4 from Escherichia coli (K12), PBP3 from Pseudomonas aeruginosa (PA01), PBP1a, PBP2 and PBP3 from Acinetobacter baumannii (ATCC 19606), and PBP2 from Neiserria gonorrheae (FA19). PBPs were cloned and purified as described previously (E. coli PBPs, King, D. T, et al., ACS Infectious Diseases 2015, 1, 175-184; P. aeruginosa PBP3, Han et. al., PNAS 2010, 107 (51), 22002-22007; A. baumannii PBPs, Penwell et. al., Antimicrob. Agents Chemother. 2015, 59 (3), 1680-1689; N. gonorrhoeae PBP2, Singh et. al., J Biol. Chem. 2019, 294 (38), 14020-14032). To establish assay conditions for competition binding, enzyme titration/saturation binding experiments were initially performed. Bocillin-FL was prepared at 0.2 μM in a buffer comprised of 50 mM Hepes (pH 8.0), 300 mM NaCl and 5% (v/v) glycerol for reactions with E. coli, P. aeruginosa and N. gonorrhoeae PBPs, and 25 mM Tris (pH 8.0), 200 mM NaCl and 10% (v/v) glycerol and 0.005% (v/v) Tween 20 for reactions with A. baumannii PBPs. Saturation binding was performed by mixing 40 μl of PBP solutions ranging in concentrations from 0-24 μM with 40 μl of the 0.2 μM Bocillin-FL solution, in individual wells of a black 384-well microplate. FP was measured immediately upon mixing (Excitation, 490 nm; Emission, 520 nm; g-factor, 0.96), using a Cytation3 (BioTek) microplate reader and measured continuously for up to 120 minutes. […] The competition binding assay (80 μl final volume) was validated using beta-lactams and PBPs at final concentrations of: 1.5 μM, E. coli PBP3; 0.75 μM, P. aeruginosa PBP3; 1 μM A. baumannii PBP1a; 2.5 μM A. baumannii PBP2; 0.2 μM A. baumannii PBP3; and […] N. gonorrhoeae PBP2. Bocillin-FL was at 0.1 μM (0.05 μM with A. baumannii PBP1a) and beta-lactam concentrations ranged from 0-1000 μM. […] Bocillin-FL was added and the FP immediately measured for up to 60 minutes (90 minutes for E. coli PBP2). […] The beta-lactam potency was reported as the concentration of beta-lactam required to reduce the amount of PBP bound-Bocillin-FL by 50% (EC50). […] Binding assays for boronic acid PBP inhibitors were performed in an identical fashion for the respective PBPs
row,SMILES,EC50 [µM]
1,"NCCN1CCN(C(=O)N[C@@H](C(=O)N[C@H]2Cc3ccc(F)c(C(=O)O)c3OB2O)c2c(F)cc(O)c(O)c2Cl)C(=O)C1=O (single isomer, unassigned) [Example 26]",> 100
2,"NCCCN1CCN(C(=O)N[C@@H](C(=O)N[C@H]2Cc3ccc(F)c(C(=O)O)c3OB2O)c2c(F)cc(O)c(O)c2Cl)C(=O)C1=O (single isomer, unassigned) [Example 27]",> 100
3,"O=C(O)c1c(F)ccc2c1OB(O)[C@@H](NC(=O)[C@H](NC(=O)N1CCNC1=O)c1c(F)cc(O)c(O)c1Cl)C2 (single isomer, unassigned) [Example 34]",30 to 100
4,"NCCN1CCN(C(=O)N[C@@H](C(=O)N[C@H]2Cc3ccc(F)c(C(=O)O)c3OB2O)c2c(F)cc(O)c(O)c2F)C(=O)C1=O (single isomer, unassigned) [Example 40]",30 to 100
5,"CS(=O)(=O)N1CCN(C(=O)NC(C(=O)N[C@H]2Cc3ccc(F)c(C(=O)O)c3OB2O)c2ccc(O)c(O)c2Cl)C1=O (stereo partly drawn) [Example 23, (3R)-3-(2-(2-chloro-3,4-dihydroxyphenyl)-2-(3-(methylsulfonyl)-2-oxoimidazolidine-1-carboxamido)acetamido)-7-fluoro-2-hydroxy-3,4-dihydro-2H-benzo[e][1,2]oxaborinine-8-carboxylic acid]",> 100
6,"CCN1CCN(C(=O)NC(C(=O)N[C@H]2Cc3cccc(C(=O)O)c3OB2O)c2ccc(O)c(NC(=O)c3ccc(O)c(O)c3Cl)c2)C(=O)C1=O (stereo partly drawn) [Example 74, (3R)-3-(2-(3-(2-chloro-3,4-dihydroxybenzamido)-4-hydroxyphenyl)-2-(4-ethyl-2,3-dioxopiperazine-1-carboxamido)acetamido)-2-hydroxy-3,4-dihydro-2H-benzo[e][1,2]oxaborinine-8-carboxylic acid]",> 100

# Test system: P. aeruginosa PAO1
# Assay: Broth microdilution MIC in CAMHB
# Type: cell-based
# Conditions: Pseudomonas aeruginosa, MHB, read-out: Minimum Inhibitory Concentration, P. aeruginosa PAO1
# Experimental: To determine the ability of test compounds to inhibit the growth of bacterial strains, classic cell based broth microdilution minimum inhibitory concentration (MIC) assays were employed. MIC assays are performed according to CLSI methods except where otherwise noted (CLSI, 2018 and CLSI, 2019). The reference type strain E. coli ATCC 25922; the wild-type parent strain E. coli AG100; the hyper-permeable E. coli 901C and E. coli D22; and the E. coli AG100A strain lacking the acrAB efflux pump encoding genes were used to determine the ability of the PBP inhibitors to penetrate the outer membrane of gram-negative bacteria and inhibit bacterial growth. […] The P. aeruginosa ATCC 27853 and A. baumannii ATCC 19606, along with the hyper-permeable P. aeruginosa ATCC 35151 and an engineered efflux pump-compromised strain of P. aeruginosa (ΔmexAB-oprM) were used to determine the ability of PBP inhibitors to penetrate the outer membrane of P. aeruginosa and A. baumannii and assess antibacterial activity against these important gram-negative organisms.
# Briefly, cryo-preserved bacterial cultures of challenge strains are streaked for isolation on appropriate agar medium, in this case cation-adjusted Mueller Hinton agar. Following incubation to allow growth of the colonies, plates are sealed with parafilm and stored refrigerated for up to two weeks. For preparation of assay inoculum and to ensure low variability, at least 5 colonies are picked from the agar plates with an inoculating loop and aseptically transferred to a culture tube containing 3 mL of cation-adjusted Mueller Hinton broth (CAMHB). The broth culture is grown for 3-5 hours at 37° C. with shaking at 200 rpm. Meanwhile, 2-fold serial dilutions of test compounds are conducted in a 96-well plate with a final volume of 75 μL per well at 2-fold the final desired concentration. After the dilution plates are set up the growing cultures are then diluted in a cuvette containing CAMHB and the optical density is measured at 600 nm. The inoculum is diluted such that 75 μL of this culture in CAMHB results in a starting bacterial concentration of 2-8×10^5 CFU/mL when added to the dilution plates. The plates are incubated for 16-20 hours for Enterobacteriaceae and Pseudomonas and 20-24 hours for Acinetobacter at 37° C. The MIC values are read visually as the lowest concentration well with no bacterial growth.
row,SMILES,MIC [µg/mL]
1,"CCN1CCN(C(=O)NC(C(=O)N[C@H]2Cc3ccc(SCc4ccc(O)cc4)c(C(=O)O)c3OB2O)c2csc(N)n2)C(=O)C1=O (stereo partly drawn) [Example 55, (3R)-3-(2-(2-aminothiazol-4-yl)-2-(4-ethyl-2,3-dioxopiperazine-1-carboxamido)acetamido)-2-hydroxy-7-((4-hydroxybenzyl)thio)-3,4-dihydro-2H-benzo[e][1,2]oxaborinine-8-carboxylic acid]",> 128
2,"CCN1CCN(C(=O)NC(C(=O)N[C@H]2Cc3ccc(C=O)c(C(=O)O)c3OB2O)c2csc(N)n2)C(=O)C1=O (stereo partly drawn) [Example 57, (3R)-3-(2-(2-aminothiazol-4-yl)-2-(4-ethyl-2,3-dioxopiperazine-1-carboxamido)acetamido)-7-formyl-2-hydroxy-3,4-dihydro-2H-benzo[e][1,2]oxaborinine-8-carboxylic acid]",> 128
3,"CCN1CCN(C(=O)NC(C(=O)N[C@H]2Cc3ccc(CO)c(C(=O)O)c3OB2O)c2csc(N)n2)C(O)C1=O (stereo partly drawn) [Example 58, (3R)-3-(2-(2-aminothiazol-4-yl)-2-(4-ethyl-2-hydroxy-3-oxopiperazine-1-carboxamido)acetamido)-2-hydroxy-7-(hydroxymethyl)-3,4-dihydro-2H-benzo[el][1,2]oxaborinine-8-carboxylic acid]",> 128
4,"CCN1CCN(C(=O)NC(C(=O)N[C@H]2Cc3ccc(O[C@@H]4CN[C@H](C(=O)N(C)C)C4)c(C(=O)O)c3OB2O)c2ccccc2)C(=O)C1=O (stereo partly drawn) [Example 59, (3R)-7-(((3S,5S)-5-(dimethylcarbamoyl)pyrrolidin-3-yl)oxy)-3-(2-(4-ethyl-2,3-dioxopiperazine-1-carboxamido)-2-phenylacetamido)-2-hydroxy-3,4-dihydro-2H-benzo[e][1,2]oxaborinine-8-carboxylic acid]",> 128
5,"CCN1CCN(C(=O)NC(C(=O)N[C@H]2Cc3ccc(OCCN)c(C(=O)O)c3OB2O)c2ccccc2)C(=O)C1=O (stereo partly drawn) [Example 60, (3R)-7-(2-aminoethoxy)-3-(2-(4-ethyl-2,3-dioxopiperazine-1-carboxamido)-2-phenylacetamido)-2-hydroxy-3,4-dihydro-2H-benzo[e][1,2]oxaborinine-8-carboxylic acid]",> 128
